pIC50: −log10 of the molar value.
System: T1, COX-2
T1 construct: gene Ptgs2
Assay: chromogenic TMPD oxidation assay of COX-2 activity; RAW […] cells per figure legend
Type: biochemical

## O=c1c2cc(O)c(O)cc2oc2cc(O)c([C@@H]3O[C@H](CO)[C@@H](O)[C@H](O)[C@H]3O)c(O)c12 [PT-Mangiferin, Mangiferin]
  pIC50: 4.40

Source: publication PMC5316935, “Mangiferin from Pueraria tuberosa reduces inflammation via inactivation of NLRP3 inflammasome” (Scientific Reports, 2017)
